This note sets out measurements from ChEMBL document CHEMBL5614400, “Emerging therapeutics: The imidazo[1,2-b]pyridazine scaffold as a novel drug candidate for eumycetoma, a neglected tropical disease” (Eur J Med Chem, 2024).

Series [1] has as its system Madurella mycetomatis. In words: Antifungal activity against Madurella mycetomatis MM55 at 25 uM by XTT assay. Type of series: functional, organism-based. On the technique in general: Tetrazolium assays rely on reduction of a dye to a coloured formazan, in cell work by metabolically active cells.
The subject of series [2] is Madurella mycetomatis. In words: Antifungal activity against Madurella mycetomatis MM55 at 100 uM by XTT assay. It counts as functional, organism-based.
For series [3], the system named is Madurella mycetomatis. Nature of the series: Antifungal activity against Madurella mycetomatis MM55 by XTT assay. It counts as functional, organism-based. Conditions: Madurella mycetomatis, MM55.
In series [4] the test system is Madurella mycetomatis. In words: Antifungal activity against Madurella mycetomatis Peru72012 by XTT assay. Type of series: functional.
In series [5] the test system is Madurella mycetomatis. In words: Antifungal activity against Madurella mycetomatis AL1 by XTT assay. Type of series: functional.
Series [6] deals with Madurella mycetomatis. Nature of the series: Antifungal activity against Madurella mycetomatis P1 by XTT assay. It counts as functional.
Series [7] relates to Madurella mycetomatis. Nature of the series: Antifungal activity against Madurella mycetomatis I3 by XTT assay. It counts as functional.
Series [8] is described as follows: Selectivity index, ratio of IC50 for mouse NIH3T3 cells to IC50 for Madurella mycetomatis MM55. Type of series: toxicity. The conditions noted are these: read-out: Ratio IC50.
A short description of series [9]: Cytotoxicity against mouse NIH3T3 cells incubated for 5 days by MTT assay. Type of series: toxicity, cell-based.
For series [10], the system named is Madurella mycetomatis. In words: Antifungal activity against Madurella mycetomatis MM50 by XTT assay. Type of series: functional.
Series [11] concerns Madurella mycetomatis. In words: Antifungal activity against Madurella mycetomatis CBS247.48 by XTT assay. It counts as functional.
The subject of series [12] is Madurella mycetomatis. In words: Antifungal activity against Madurella mycetomatis I11 by XTT assay. Type of series: functional.
For series [13], the system named is Madurella mycetomatis. In words: Antifungal activity against Madurella mycetomatis I1 by XTT assay. It counts as functional.
Series [14] deals with Madurella mycetomatis. Nature of the series: Antifungal activity against Madurella mycetomatis SO1 by XTT assay. It counts as functional.

The structures appear in SMILES notation. ≈ marks a conversion by molar mass, not a printed value. Calls of active or inactive are those of the source.

As for `CN1CCN(c2cc(-c3ccccc3)c3nc(-c4ccc(F)cc4)cn3n2)CC1`, the result in series [1] and in series [2] was inactive.

As to `CN1CCN(c2cc(-c3cccc4[nH]ccc34)c3nc(-c4ccc(F)cc4)cn3n2)CC1`, the result in series [1] and in series [2] was Active.

On to `CN1CCN(c2cc(Br)c3nc(-c4ccc(F)cc4)cn3n2)CC1`, for which the result in [1] and in series [2] was inactive.

Take `CN1CCN(c2cc(-c3cccnc3)c3nc(-c4ccccc4F)cn3n2)CC1`: the outcome in [1] and in series [2] was Active. Besides, in series [3], the IC50 (commonly the concentration at which inhibition is half-maximal) stood at 11.5 µM.

On to `CN1CCN(c2cc(-c3ccsc3)c3nc(-c4ccc(F)cc4)cn3n2)CC1`, for which the outcome in series [1] and in series [2] was Active.

Take `CN1CCN(c2cc(-c3cccnc3)c3nc(-c4ccc(F)cc4)cn3n2)CC1`: the result in [1] and in series [2] was Active. The IC50 in series [3] was more than 16 µM.

Regarding `CN1CCN(c2cc(-c3ccnn3C)c3nc(-c4ccc(F)cc4)cn3n2)CC1`, the result in series [1] was inactive. Also, the result in [2] was Active.

Consider `OCCN1CCN(c2cc(-c3cnc(N4CCN(CCO)CC4)nc3)c3nc(-c4ccccc4F)cn3n2)CC1`, for which the MIC (in general, the smallest concentration in the dilution series that meets the test's criterion for growth inhibition) is 16 µM (≈ 8.76 µg/mL) in series [4]; 8 µM (≈ 4.38 µg/mL) in [3]; more than 16 µM in series [5]; more than 16 µM in series [6]; more than 16 µM in series [7]; more than 16 µM in series [10]. For the same compound, the MIC in [11] is more than 16 µM; in series [12] it was more than 16 µM; in series [13], 16 µM (≈ 8.76 µg/mL); in [14], more than 16 µM. The compound also yielded an IC50 in [3] of 3.8 µM. Further, in series [8], the selectivity ratio amounted to 0.8. The IC50 at 5 days in series [9] came out at 1.4 µM.

Regarding `CN1CCN(c2cc(-c3ccncc3)c3nc(-c4ccc(F)cc4)cn3n2)CC1`, in [1], the result was inactive. In addition, in series [2], the outcome was Active.

For the compound `CN1CCN(c2cc(-c3cccnc3)c3nc(-c4cccc(F)c4)cn3n2)CC1`, the result in series [1] and in [2] was Active. Besides, the IC50 in [3] worked out at 11.7 µM.

Consider `CN1CCN(c2cc(-c3ccsc3)c3nc(-c4cccc(F)c4)cn3n2)CC1`, for which the MIC in [4], in series [3], in series [5], in series [6], in series [7] and in series [10] was 8 µM (≈ 3.15 µg/mL) in each case. For the same compound, the MIC in series [11], in series [12], in series [13] and in [14] was 8 µM (≈ 3.15 µg/mL) in each case. In series [3], the IC50 amounted to 2.1 µM. The selectivity ratio in series [8] worked out at 2.5. In addition, half-maximal inhibition in series [9] (IC50 at 5 days) was put at 11.9 µM.

As to `CN1CCN(c2cc(-c3ccoc3)c3nc(-c4ccc(F)cc4)cn3n2)CC1`, the outcome in [1] was inactive. The result in series [2] was Active.

As for `OCCN1CCN(c2cc(-c3ccsc3)c3nc(-c4cccc(F)c4)cn3n2)CC1`, the MIC in series [4] turned out to be 8 µM (≈ 3.39 µg/mL); in [3] it was 4 µM (≈ 1.69 µg/mL); in [5] it was 8 µM (≈ 3.39 µg/mL); in [6] it was 4 µM (≈ 1.69 µg/mL); in [7], 8 µM (≈ 3.39 µg/mL); in series [10], 8 µM (≈ 3.39 µg/mL). The MIC in series [11] is 4 µM (≈ 1.69 µg/mL); in series [12] it was 4 µM (≈ 1.69 µg/mL); in series [13], 8 µM (≈ 3.39 µg/mL); in series [14], 8 µM (≈ 3.39 µg/mL). The compound also gave an IC50 in series [3] of 0.9 µM. The selectivity ratio in [8] worked out at 8.2. This compound returned an IC50 at 5 days in series [9] of 10.7 µM.

In the case of `OCCN1CCN(c2cc(-c3ccsc3)c3nc(-c4ccccc4)cn3n2)CC1`, the MIC in series [4] is 8 µM (≈ 3.24 µg/mL); in series [3] it was 4 µM (≈ 1.62 µg/mL); in series [5], 8 µM (≈ 3.24 µg/mL); in [6] it was 8 µM (≈ 3.24 µg/mL); in [7] it was 8 µM (≈ 3.24 µg/mL); in series [10] it was 8 µM (≈ 3.24 µg/mL). For the same compound, the MIC in [11] came out at 8 µM (≈ 3.24 µg/mL); in series [12], 8 µM (≈ 3.24 µg/mL); in [13] it was 8 µM (≈ 3.24 µg/mL); in [14], 16 µM (≈ 6.49 µg/mL). Besides, in [3], the IC50 was found to be 2.6 µM. The selectivity ratio in series [8] was 3.4. Moreover, the IC50 at 5 days in [9] stood at 13.1 µM.

With `CN1CCN(c2cc(-c3cccc4[nH]ccc34)c3nc(-c4ccccc4)cn3n2)CC1`, the outcome in series [1] and in series [2] was Active.

Consider `CN1CCN(c2cc(-c3ccsc3)c3nc(-c4ccccc4)cn3n2)CC1`, for which the MIC in series [4], in [3], in [5], in [6], in [7] and in series [10] was 8 µM (≈ 3 µg/mL) throughout. Moreover, the MIC stood at 8 µM (≈ 3 µg/mL) in [11], 4 µM (≈ 1.5 µg/mL) in series [12], 8 µM (≈ 3 µg/mL) in [13] and 8 µM (≈ 3 µg/mL) in [14]. In [3], this compound returned an IC50 of 3.5 µM. The selectivity ratio in [8] worked out at 5.1. The same compound gave an IC50 at 5 days in series [9] of 10.2 µM.

In the case of `CN1CCN(c2cc(-c3cnn(C)c3)c3nc(-c4ccc(F)cc4)cn3n2)CC1`, the result in series [1] and in series [2] was Active.

For `CCC(C)n1ncn(-c2ccc(N3CCN(c4ccc(OCC5COC(Cn6cncn6)(c6ccc(Cl)cc6Cl)O5)cc4)CC3)cc2)c1=O` (stereo unspecified) [ITRACONAZOLE], the MIC in [4] was found to be 0.5 µM (≈ 0.353 µg/mL); in series [3], 0.5 µM (≈ 0.353 µg/mL); in series [5], 0.06 µM (≈ 0.0423 µg/mL); in series [6], 0.25 µM (≈ 0.176 µg/mL); in [7] it was 1 µM (≈ 0.706 µg/mL); in series [10] it was 1 µM (≈ 0.706 µg/mL). Moreover, the MIC in series [11] came out at 2 µM (≈ 1.41 µg/mL); in series [12] it was 0.5 µM (≈ 0.353 µg/mL); in [13], 8 µM (≈ 5.65 µg/mL); in series [14], 0.25 µM (≈ 0.176 µg/mL). In series [3], the midpoint of inhibition, the IC50, lay at 1.1 µM. Besides, the selectivity ratio in series [8] stood at 1.4. In [9], this compound yielded an IC50 at 5 days of 13.7 µM.

`CN1CCN(c2cc(-c3cnc(N4CCN(C)CC4)nc3)c3nc(-c4ccccc4F)cn3n2)CC1`: the MIC in [4] was determined as 4 µM (≈ 1.95 µg/mL); in series [3], 16 µM (≈ 7.8 µg/mL); in [5], 4 µM (≈ 1.95 µg/mL); in [6] it was 4 µM (≈ 1.95 µg/mL); in series [7], 16 µM (≈ 7.8 µg/mL); in series [10], 4 µM (≈ 1.95 µg/mL). In addition, the MIC in [11], in [12], in [13] and in [14] was 4 µM (≈ 1.95 µg/mL) throughout. Also, in series [3], the IC50 stood at 4 µM. The selectivity ratio in [8] came out at 2. The IC50 at 5 days in series [9] was 9.6 µM.

As for `CN1CCN(c2cc(-c3ccsc3)c3nc(-c4ccccc4F)cn3n2)CC1`, the MIC is 16 µM (≈ 6.3 µg/mL) in series [4]; 8 µM (≈ 3.15 µg/mL) in [3]; 8 µM (≈ 3.15 µg/mL) in series [5]; 8 µM (≈ 3.15 µg/mL) in series [6]; 8 µM (≈ 3.15 µg/mL) in series [7]; 8 µM (≈ 3.15 µg/mL) in series [10]. In addition, the MIC in series [11], in series [12], in series [13] and in series [14] was 8 µM (≈ 3.15 µg/mL) each time. In series [3], this compound had an IC50 of 1.9 µM. Further, in series [8], the selectivity ratio was found to be 3.7. In [9], it took 14.6 µM to reach half-maximal inhibition (IC50 at 5 days).
